Measured values reported in patent publication US9505740B2, “Cyclic amine derivative and pharmaceutical use thereof” (Toray Industries, Inc., priority 2013, dated 2016).
Where a name gives a salt, the structure may show the parent alone.

Tests used:
[1] = tested on: mouse partial sciatic nerve ligation model; experiment: Mouse partial sciatic nerve ligation model (Seltzer model), von Frey test; format: in vivo; details: Day 7, vs physiological saline group
[2] = tested on: fibromyalgia syndrome model rats; experiment: Fibromyalgia syndrome model in rats (acidic saline), allodynia by von Frey filament; format: in vivo, rat; details: intravenous administration; Example 13 3 and 10 mg/kg, pregabalin 10 mg/kg; 30 minutes after administration; vs acidic saline-vehicle group
Excerpt: Using a fibromyalgia syndrome model in rats by which fibromyalgia syndrome can be evaluated, the analgesic action of a cyclic amine derivative (I) or a prodrug thereof or a pharmacologically acceptable salt thereof was investigated.
As the cyclic amine derivative (I) or a pharmacologically acceptable salt thereof, the compound of Example 13 was used for evaluation. As the prodrug of a cyclic amine derivative (I) or a pharmacologically acceptable salt thereof, the compound of Example 38 was used for evaluation. The compound of Example 38 is a hydrochloride of a prodrug obtained by esterifying the carboxyl group of the compound of Example 39 with an ethyl group.
To prepare a fibromyalgia syndrome model rat (Sluka et al., Journal of Pharmacology and Experimental Therapeutics, vol. 302, p. 1146-50, 2002; Nagakura et al., Pain, vol. 146, p. 26-33, 2009; Sluka et al., Pain, vol. 146, p. 3-4, 2009), which is generally employed widely in basic research for fibromyalgia syndrome, acidic saline (100 μL) adjusted to pH4.0 was intramuscularly injected to the gastrocnemius muscle of the right hind paw of Crl: CD(SD) rat (6 to 7 weeks old, male; from CHARLES RIVER LABORATORIES JAPAN, INC.) under continuous inhalation anesthesia with isoflurane, twice (once in each day of Day 1 and Day 6, wherein Day 1 was the date on which the acidic saline was initially administrated). The rats thus prepared were raised in a breeding room controlled at an indoor temperature of 21 to 25° C. and an indoor humidity of 40 to 70% under the conditions of voluntary intake of food and water. In the same manner, rats to which physiological saline in place of acidic saline was intramuscularly injected were raised. The rats thus raised and not afflicted with fibromyalgia syndrome (“physiological saline-vehicle” group in FIGS. 23 and 24) were also used in the experiment.
Day 7 after the initial administration of acidic saline, allodynia in each rat was measured. […] Note that, measurement of allodynia was performed by use of a von Frey filament (from North Coast Medical) in accordance with the method described in a known literature (Chaplan et al., Journal of Neuroscience Methods, vol. 53, p. 55-63, 1994). […]
The compound of Example 13 (3 and 10 mg/kg) was dissolved in physiological saline and then administered (intravenous administration) to fibromyalgia syndrome model rats through the tail vein (“acidic saline—the compound of Example 13” in FIG. 23). […] In thirty minutes after the intravenous administration, allodynia in individual rats was measured to evaluate an analgesic action. […]

[3] = intraventricular administration, 10 μg/site, 15, 30 and 60 minutes after administration, p<0.05
[4] = intravenous administration (tail vein), Examples 2, 4: 0.1 to 10 mg/kg, 13: 0.01 to 1 mg/kg, 18, 22: 0.1 and 1 mg/kg, 25, 27, 29, 31, 33, 66, 68, 70: 0.1 mg/kg, pregabalin 1 or 3 mg/kg

Row | SMILES | analgesic action, total score in the von Frey test [1, 3] | analgesic action, total score in the von Frey test [1, 4] | allodynia, 50% response threshold (mean value of the right hind paw and the left hind paw) [2]
1 | CC(=O)NCCN(C)C1CCN(C(=O)CCc2nccn2C)CC1 [Example 6, N-(2-(methyl(1-(3-(1-methyl-1H-imidazol-2-yl)propanoyl)piperidin-4-yl)amino)ethyl)acetamide hydrochloride] | statistically significant analgesic action | – | –
2 | CC(=O)N(C)C1CCN(C(=O)CCc2nccn2C)CC1.Cl [Example 4, N-methyl-N-(1-(3-(1-methyl-1H-imidazol-2-yl)propanoyl)piperidin-4-yl)acetamide hydrochloride] | statistically significant analgesic action | statistically significant analgesic action | –
3 | CNC1CCN(C(=O)CCc2nccn2C)CC1 [Example 2, 3-(1-methyl-1H-imidazol-2-yl)-1-(4-(methylamino)piperidin-1-yl)propan-1-one hydrochloride] | statistically significant analgesic action | statistically significant analgesic action | –
4 | CCN(CC)C1CCN(C(=O)CCc2nccn2CC(=O)O)CC1.Cl [Example 22, 2-(2-(3-(4-(diethylamino)piperidin-1-yl)-3-oxopropyl)-1H-imidazol-1-yl)acetic acid hydrochloride] | – | statistically significant analgesic action | –
5 | CN(C)[C@H]1CCN(C(=O)CCc2nccn2CC(=O)O)C1.Cl [Example 33, (S)-2-(2-(3-(3-(dimethylamino)pyrrolidin-1-yl)-3-oxopropyl)-1H-imidazol-1-yl)acetic acid hydrochloride] | – | statistically significant analgesic action | –
6 | CC(=O)NC1CCN(C(=O)CCc2nccn2C)CC1.Cl [Example 10, N-(1-(3-(1-methyl-1H-imidazol-2-yl)propanoyl)piperidin-4-yl)acetamide hydrochloride] | statistically significant analgesic action | – | –
7 | CN(C)C1CCN(C(=O)CCc2nccn2CCC(=O)O)CC1 [Example 66, 3-(2-(3-(4-(dimethylamino)piperidin-1-yl)-3-oxopropyl)-1H-imidazol-1-yl)propanoic acid hydrochloride] | – | statistically significant analgesic action | –
8 | Cl.O=C(O)Cn1ccnc1CCC(=O)N1CCC(N2CCOCC2)CC1 [Example 27, 2-(2-(3-(4-(morpholin-4-yl)piperidin-1-yl)-3-oxopropyl)-1H-imidazol-1-yl)acetic acid hydrochloride] | – | statistically significant analgesic action | –
9 | CN(C)[C@H]1CCCN(C(=O)CCc2nccn2CCC(=O)O)C1.Cl [Example 68, 3-(2-(3-((S)-3-dimethylaminopiperidin-1-yl)-3-oxopropyl)-1H-imidazol-1-yl)propanoic acid hydrochloride] | – | statistically significant analgesic action | –
10 | Cl.O=C(O)Cn1ccnc1CCC(=O)N1CCC(N2CCCCC2)CC1 [Example 25, 2-(2-(3-(4-(piperidin-1-yl)piperidin-1-yl)-3-oxopropyl)-1H-imidazol-1-yl)acetic acid hydrochloride] | – | statistically significant analgesic action | –
11 | CN(C)[C@@H]1CCCN(C(=O)CCc2nccn2CC(=O)O)C1.Cl [Example 31, 2-(2-(3-((R)-3-dimethylaminopiperidin-1-yl)-3-oxopropyl)-1H-imidazol-1-yl)acetic acid hydrochloride] | – | statistically significant analgesic action | –
12 | CCN(C)C1CCN(C(=O)CCc2nccn2CC(=O)O)CC1.Cl [Example 18, 2-(2-(3-(4-(ethylmethylamino)piperidin-1-yl)-3-oxopropyl)-1H-imidazol-1-yl)acetic acid hydrochloride] | – | statistically significant analgesic action | –
13 | CN(C)C1CCN(C(=O)CCc2nccn2CCN)CC1 [Example 15, 3-(1-(2-aminoethyl)-1H-imidazol-2-yl)-1-(4-(dimethylamino)piperidin-1-yl)propan-1-one hydrochloride] | statistically significant analgesic action | – | –
14 | CN(C)[C@H]1CCN(C(=O)CCc2nccn2CCC(=O)O)C1.Cl [Example 70, (S)-3-(2-(3-(3-(dimethylamino)pyrrolidin-1-yl)-3-oxopropyl)-1H-imidazol-1-yl)propanoic acid hydrochloride] | – | statistically significant analgesic action | –
15 | CN(C)C1CCN(C(=O)CCc2nccn2CCO)CC1 [Example 12, 1-(4-(dimethylamino)piperidin-1-yl)-3-(1-(2-hydroxyethyl)-1H-imidazol-2-yl)propan-1-one hydrochloride] | statistically significant analgesic action | – | –
16 | CN1CCN(C2CCN(C(=O)CCc3nccn3CC(=O)O)CC2)CC1.Cl [Example 29, 2-(2-(3-(4-(1-methylpiperazin-4-yl)piperidin-1-yl)-3-oxopropyl)-1H-imidazol-1-yl)acetic acid hydrochloride] | – | statistically significant analgesic action | –
17 | CN(C)C1CCN(C(=O)CCc2nccn2CC(=O)O)CC1 [Example 13, 2-(2-(3-(4-(dimethylamino)piperidin-1-yl)-3-oxopropyl)-1H-imidazol-1-yl)acetic acid hydrochloride] | statistically significant analgesic action | statistically significant analgesic action | statistically significantly improved
